We go through 82 molecules from PubChem BioAssay AID493130 (Broad Institute, 2011).

Results filed as inconclusive are left out. The source made the active and inactive calls.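 The calls were made as follows: active = signal-lowering compounds whose fitted half-maximal concentration is at most ten times their highest tested dose; inconclusive = flat fit between -30 and -70%, or poor fit; inactive = flat within 30%, signal rising, or potency beyond limit.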

The target of one assay is POS-1 (Caenorhabditis elegans) binding to mex-3 RNA. The assay is described as follows: C. elegans POS-1 RNA interaction disruptors – biochemical, fluorescence polarization, cherry-picked samples, set 2, counter-screen for MEX-5 RNA-binding inhibitor project, dose response (AID 493130).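 Also: POS-1 as maltose binding protein fusion made in E. coli with FITC RNA.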 To be noted: POS-1/mex-3 RNA fluorescence polarization, 1 h. A general note: Fluorescence polarisation rises when a labelled molecule tumbles more slowly, as on binding a larger partner.
As usually defined, the AC50 is the concentration at which the activity in the assay is half-maximal. In the case of `CCC(=O)Oc1ccc2c(c1)O/C(=C\c1ccco1)C2=O`, the AC50 is 5.63 µM.

For `COC(=O)c1cc2c(-c3ccccc3)c(C)c3ccccn3c-2c1C(=O)OC`, the AC50 was > 10 µM (inactive).

On to `CN(CCC#N)C(=O)COC(=O)c1c2c(nc3ccccc13)/C(=C/c1ccco1)CC2`, for which the AC50 was > 10 µM (inactive). Regarding `O=c1nc2c(O)cccn2c2c1c(=O)[nH]c1ccccc12`, the concentration at half-maximal activity (AC50) is 2.46 µM. The same measure, in the same setting: the figure for `O=[N+]([O-])c1cc(/C=N\Nc2nccs2)ccc1O` is 2.55 µM; for `O=C(O)c1ccccc1NS(=O)(=O)c1cccc(-n2sc3ccccc3c2=O)c1` it is 8.72 µM. On the same count and under the same terms, the figure for `CN1CC=C2C(C#N)=C(N)C(C#N)(C#N)[C@H](c3cccs3)[C@H]2C1` is 6.12 µM. The same measure, in the same setting: the figure for `O=C1CCNc2ccc(-c3ccccc3)cc21` is 1.34 µM.

On to `Cn1c(=O)c2[nH]c(-c3ccccc3)c(O)c2n(C)c1=O`, for which the AC50 is 2.27 µM. As to `COC(=O)C1=COC(C)C2CN3CCc4c([nH]c5ccccc45)C3CC12` (configuration not stated), the AC50 is 7.17 µM. On to `Cc1c2ccccc2nc2c(F)c(NCCO)c(F)c(F)c12`, for which the AC50 is 0.854 µM.

The assay is the same for the next values; noted with them: POS-1/mex-3 RNA fluorescence polarization, 1 h; at 10 µM (top of the series).
On to `O=C(O)c1ccc(/C=C2\SC(=S)N(Nc3ccccc3)C2=O)cc1`, for which the “activity change, negative = inhibition” value was “inactive”. For the molecule `O=C(CCCN1C(=O)/C(=C/c2ccccc2Cl)SC1=S)NNC(=O)c1ccc(Cl)cc1`, the “activity change, negative = inhibition” value is “inactive”. Same read-out and setting: the entry for `COC(=O)c1ccc(CC(=O)c2c(C)cc(O)cc2O)o1` is “inactive”. Still for that read-out and setting: the result for `Cc1ccc(-c2ccc(/C=N/N=C3/NC(=O)C(CC(=O)O)S3)o2)c([N+](=O)[O-])c1` (configuration not stated) reads “inactive”; that for `NC(=O)C(=O)N/N=C1\CCc2ccccc21`, “inactive”; that for `CCOC(=O)c1cnc2c(N=Nc3ccccc3)c(N)nn2c1N`, “inactive”. The same measure, in the same setting: the result for `COc1cc(C(=O)NC(=S)NNC(=O)c2cnccn2)cc(OC)c1OC` reads “inactive”; that for `O=C1N=C(N2C=CC(=C3C=CNC=C3)C=C2)/C(=C/N=NC(=O)c2ccccc2)S1`, “inactive”; that for `CCCc1nc2c(=O)n(C)c(=O)[nH]c2n1C`, “inactive”.

As for `COc1ccccc1OCC(=O)NNC(=O)c1cnccn1`, the “activity change, negative = inhibition” value was “inactive”. The same measure, in the same setting: the result for `O=C(O)c1ccc2cccnc2c1O` reads “inactive”. On the same count and under the same terms, the result for `Nc1cnccc1C(=O)O` reads “inactive”; that for `O=C(Nc1ccc(OCc2ccccc2)cc1)Nc1cccnc1`, “inactive”; that for `CCOC(=O)c1cc(-c2ccccc2)sc1NC(=S)Nc1cccc(C)n1`, “inactive”.

Take `CCCCN(C(=O)c1ccc([N+](=O)[O-])o1)c1c(N)n(CCCC)c(=O)[nH]c1=O`: the “activity change, negative = inhibition” value is “inactive”. On the same count and under the same terms, the result for `CC(C)c1cc[n+](-c2nc([O-])sc2C=O)cc1` reads “inactive”; that for `Cc1ccc2c(c1Cl)NC(C(=O)O)C1CC(Sc3ccccc3[N+](=O)[O-])C(Cl)C21` (configuration not stated), “inactive”. Take `Cc1ccc(C(=O)N/C(=C\c2ccc(-c3cccc([N+](=O)[O-])c3)o2)C(=O)NCCCN(C)C)cc1`: the “activity change, negative = inhibition” value is “inactive”.

On to `COc1ccc(/C=C2\SC(=S)N(CCCC(=O)Nc3ccccn3)C2=O)cc1OC`, for which the “activity change, negative = inhibition” value is “inactive”.

Consider `CC1=CC2=NC(=O)/C(=C\c3ccc(-c4cccc(Cl)c4)o3)C(=N)N2O1`, for which the “activity change, negative = inhibition” value was “inactive”. Take `CC(C)(C)OC(=O)NCCCC1=CC2=CC(=O)C(C)(O)C(=O)C2=CO1` (configuration not stated): the “activity change, negative = inhibition” value is “inactive”. Consider `Cc1cccc(CS(=O)(=O)c2nnc([C@H](Cc3ccccc3)NC(=O)OC(C)(C)C)o2)c1`, for which the “activity change, negative = inhibition” value is “inactive”. `COc1cc(/C=N/NC(=O)CNS(=O)(=O)c2ccc(C)cc2)cc(OC)c1OC`: the “activity change, negative = inhibition” value is “inactive”. The same measure, in the same setting: the entry for `O=[As](O)(O)c1ccc(N=Nc2ccc(O)cc2)cc1` is “inactive”; for `CN1CCc2c(sc(NC(=O)c3ccc(S(=O)(=O)N4CCCC4)cc3)c2C(N)=O)C1` it is “inactive”; for `CC(=O)c1cc(NC(=O)c2ccc(C)cc2)c(=O)oc1C` it is “inactive”.

For `Cn1c(O)c(/C=N/NC(=O)c2cc3ccccc3cc2O)c2ccccc21`, the “activity change, negative = inhibition” value was “inactive”. Still for that read-out and setting: the entry for `Cn1ncc2c(NNC(=O)c3ccccc3Cl)ncnc21` is “inactive”; for `CN1C(=O)/C(=C/c2ccco2)SC1=Nc1cccc(C(=O)O)c1` it is “inactive”. Take `COc1cc(N2CCCC2)c(OC)cc1/C=C(/C#N)c1cccc(Br)c1`: the “activity change, negative = inhibition” value was “inactive”. The same measure, in the same setting: the entry for `CCOC(=O)C1C(=O)C=C(/C=C/c2ccc(N(C)C)cc2)CC1c1ccccc1` (configuration not stated) is “inactive”. Still for that read-out and setting: the entry for `COCC1CCN(Cc2c(C(=O)N3CCN(C4CCCCC4)CC3)nc3ccccn23)C1` (configuration not stated) is “inactive”. Consider `Cc1ccc(N/N=C(\C#N)C(=O)c2ccsc2)cc1`, for which the “activity change, negative = inhibition” value is “inactive”. The same measure, in the same setting: the result for `CC(C)(C)N(CC#CCC(O)(c1ccccc1)c1ccccc1)CCO` reads “inactive”. On the same count and under the same terms, the result for `COCCNc1ncnc2nc[nH]c12` reads “inactive”; that for `CN1CCc2c(sc(NC(=O)c3ccc(S(=O)(=O)N4CCCCCC4)cc3)c2C(N)=O)C1`, “inactive”; that for `CCOc1ccc(/C=C2/C(=O)N(c3ccc(OC)cc3)C(=S)N2CC(=O)OC)cc1OCC`, “inactive”. Same read-out and setting: the result for `COc1cc(OC)c2ccc(=O)oc2c1C(CC(=O)N1CCCC1)c1ccc(N(C)C)cc1` (configuration not stated) reads “inactive”; that for `CC1=C(C(=O)OCc2ccccc2)C(c2cccc([N+](=O)[O-])c2)NC(=O)N1C` (configuration not stated), “inactive”; that for `COc1nc(N/N=C/c2ccc(-c3ccccc3[N+](=O)[O-])o2)nc(N2CCOCC2)n1`, “inactive”. Consider `O=C(O)CCCCCN1C(=O)C(O)=C(C(=O)/C=C/c2ccccc2)C1c1ccccc1[N+](=O)[O-]` (configuration not stated), for which the “activity change, negative = inhibition” value was “inactive”. `Cc1c(C#N)c(O)n(CCO)c(=O)c1N=Nc1ccccc1`: the “activity change, negative = inhibition” value was “inactive”. For the molecule `CCn1c(C)c(C(C)=O)c(N2CCN(c3ccccc3)CC2)nc1=S`, the “activity change, negative = inhibition” value was “inactive”. Regarding `CN(N)N=Nc1nc2c([nH]1)c(=O)n(C)c(=O)n2C`, the “activity change, negative = inhibition” value is “inactive”.

Take `Cc1ccc(N2C(=O)c3ccc(C(=O)O)cc3C2=O)cc1C`: the “activity change, negative = inhibition” value was “inactive”.

Consider `Cc1cc(=O)[nH]c(SCc2nc3ccc([N+](=O)[O-])cc3[nH]2)n1`, for which the “activity change, negative = inhibition” value was “inactive”. The same measure, in the same setting: the entry for `CCN(CC)c1ccc(C(=O)N/N=C(\C)c2cccnc2)cc1` is “inactive”. As for `O=C(O)Cc1c[nH]c2cccc(O)c12`, the “activity change, negative = inhibition” value is “inactive”. On the same count and under the same terms, the entry for `O=c1cc(-c2ccccc2Cl)oc2c(NS(=O)(=O)c3ccccc3OC(F)(F)F)ccc(O)c12` is “inactive”; for `O=C(CCN1C(=O)/C(=C\c2ccco2)SC1=S)Nc1ccc(C(=O)O)c(O)c1` it is “inactive”; for `COc1ccc(-c2cn[nH]c2-c2ccc(OCC(=O)NN)cc2O)cc1` it is “inactive”.

For the molecule `Cc1nc2nc(-c3ccc(Cl)cc3)cn2nc1C`, the “activity change, negative = inhibition” value was “inactive”. As to `COc1ccc2c(c1)NC(c1ccc(N(C)C)cc1)c1cccn1-2` (configuration not stated), the “activity change, negative = inhibition” value was “inactive”. As to `O=C(O)Cn1c(O)c(C2=c3ccccc3=NC2=O)sc1=O`, the “activity change, negative = inhibition” value is “inactive”.

For the molecule `CSc1nc(N)c(N=Nc2ccc([As](=O)(O)O)cc2)c(=O)[nH]1`, the “activity change, negative = inhibition” value is “inactive”.

Regarding `CCOc1ccc(/C=N/n2c(C)nc3ccccc3c2=O)cc1`, the “activity change, negative = inhibition” value is “inactive”. For `CC1=Nc2ccc(C)cc2/C1=C/c1c(N)n2c(S(=O)(=O)C(C)C)nsc2nc1=O`, the “activity change, negative = inhibition” value is “inactive”. Same read-out and setting: the entry for `CCOc1ccc(/C=C/C(=O)c2ccccc2)cc1` is “inactive”; for `O=c1nc(-c2ccccc2)c2cc(Br)ccc2[nH]1` it is “inactive”. As for `O=C(Nc1ccc(S(=O)(=O)Nc2nccs2)cc1)c1ccc(N2C(=O)c3ccccc3C2=O)cc1`, the “activity change, negative = inhibition” value was “inactive”. On the same count and under the same terms, the entry for `O=C1c2cccc3cccc(c23)C(=O)N1Cc1ccccc1` is “inactive”; for `COC(=O)CCC(=O)OC1(C)C(=O)C2=CN(Cc3ccccc3)C(c3ccc(OC)cc3)=CC2=C(Br)C1=O` (configuration not stated) it is “inactive”; for `Cc1cc(/C=C2/C(=N)N3C(=NC2=O)SN=C3S(C)(=O)=O)c(C)n1-c1ccc(F)cc1` it is “inactive”. Still for that read-out and setting: the entry for `Cc1nnc(-c2cccc(Br)c2)c2cn(-c3cccc(Br)c3)nc12` is “inactive”; for `CCn1c(C)nc2c1C(=O)c1ccccc1C2=O` it is “inactive”; for `Cc1cccc(NC(=O)CN2C(=O)S/C(=C\c3ccc(-c4cccc(C(=O)O)c4C)o3)C2=O)c1` it is “inactive”. With `CCCCCC(=O)N(Cc1ccccc1)c1c(N)n(CCOC)c(=O)[nH]c1=O`, the “activity change, negative = inhibition” value was “inactive”. Still for that read-out and setting: the result for `Cc1c(Cl)cccc1NC(=O)C(=O)NNS(=O)(=O)c1ccc(F)cc1` reads “inactive”; that for `COc1cc2c(cc1O)C[C@H]1NCCc3cc4c(c-2c31)OCO4`, “inactive”. The same measure, in the same setting: the result for `O=C(O)CCSc1nc2ccccc2n1Cc1ccccc1` reads “inactive”.

Regarding `O=C(O)c1cc(-c2ccc(/C=c3\sc4nc5ccc(Br)cc5n4c3=O)o2)ccc1Cl`, the “activity change, negative = inhibition” value was “inactive”.
